ChEMBL document CHEMBL1201862, “PubChem BioAssay data set” (2004)
Active and inactive are the calls of the source.

What was measured:
[1] = target: DNA dC->dU-editing enzyme APOBEC-3A (Homo sapiens, UniProt P31941); experiment: A3A deaminase inhibition for selectivity – biochemical, dose response (AID 504722); format: functional
[2] = target: DNA dC->dU-editing enzyme APOBEC-3G (Homo sapiens, UniProt Q9HC16); experiment: Dose Response confirmation of small molecule APOBEC3G DNA Deaminase Inhibitors via a fluorescence-based single-stranded DNA deaminase assay. [Related pubchem assays (depositor defined):AID493012, AID493028]; format: functional
Chain of DNA dC->dU-editing enzyme APOBEC-3G (Q9HC16 whole entry): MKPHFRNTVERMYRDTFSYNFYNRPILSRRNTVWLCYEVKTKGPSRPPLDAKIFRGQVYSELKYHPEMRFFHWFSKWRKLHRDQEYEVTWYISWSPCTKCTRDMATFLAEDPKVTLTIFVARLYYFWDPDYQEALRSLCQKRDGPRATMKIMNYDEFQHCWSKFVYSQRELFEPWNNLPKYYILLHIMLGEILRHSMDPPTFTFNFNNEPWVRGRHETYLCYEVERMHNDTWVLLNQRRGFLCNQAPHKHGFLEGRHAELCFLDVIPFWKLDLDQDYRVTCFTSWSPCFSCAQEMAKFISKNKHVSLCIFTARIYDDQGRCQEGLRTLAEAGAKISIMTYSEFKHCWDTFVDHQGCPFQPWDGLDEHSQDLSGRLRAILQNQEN

[3] = target: T1, Replicative DNA helicase DnaB (Mycobacterium tuberculosis, UniProt P9WMR3); experiment: DnaB intein splicing inhibitors, dose response, biochemical, cell-free fluorescence (AID 449749); format: functional
T1 sequence (P9WMR3 whole entry): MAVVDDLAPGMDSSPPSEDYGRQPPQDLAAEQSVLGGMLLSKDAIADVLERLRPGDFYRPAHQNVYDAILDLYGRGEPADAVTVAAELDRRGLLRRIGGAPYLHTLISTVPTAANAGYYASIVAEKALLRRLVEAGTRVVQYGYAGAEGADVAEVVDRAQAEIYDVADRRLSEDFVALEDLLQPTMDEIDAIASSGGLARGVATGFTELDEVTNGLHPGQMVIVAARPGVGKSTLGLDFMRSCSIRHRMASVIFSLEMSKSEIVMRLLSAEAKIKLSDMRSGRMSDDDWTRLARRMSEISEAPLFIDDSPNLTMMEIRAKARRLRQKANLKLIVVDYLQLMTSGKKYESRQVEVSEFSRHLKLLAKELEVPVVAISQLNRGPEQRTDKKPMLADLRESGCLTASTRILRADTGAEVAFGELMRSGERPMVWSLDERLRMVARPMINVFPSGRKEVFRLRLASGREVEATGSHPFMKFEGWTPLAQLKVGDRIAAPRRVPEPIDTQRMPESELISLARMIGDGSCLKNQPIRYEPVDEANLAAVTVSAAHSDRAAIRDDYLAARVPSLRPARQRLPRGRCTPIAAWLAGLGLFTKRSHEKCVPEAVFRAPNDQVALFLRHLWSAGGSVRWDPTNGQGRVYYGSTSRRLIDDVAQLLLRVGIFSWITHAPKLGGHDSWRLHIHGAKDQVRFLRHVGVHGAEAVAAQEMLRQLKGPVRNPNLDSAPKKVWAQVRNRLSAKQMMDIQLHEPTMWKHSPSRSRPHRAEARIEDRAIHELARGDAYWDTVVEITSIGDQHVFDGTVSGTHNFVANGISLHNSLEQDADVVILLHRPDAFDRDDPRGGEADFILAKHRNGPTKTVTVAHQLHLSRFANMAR

[4] = tested on: CHO; experiment: CHO cell viability loss, potency – luminescence, cytotoxicity control for TLR9-MyD88 binding inhibitor project, dose response (AID 588339); format: functional, cell-based, hamster; conditions: Cricetulus griseus;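 note: CHO cells stably coexpressing TLR9 and MyD88 fusions from primary screen; compound exposure lasted 48 hours before viability readout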
[5] = Trypanosoma cruzi growth suppression in host cells – NIH3T3 host cells, beta-gal luminescence, confirmation (AID 2044); format: functional, cell-based;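 note: intracellular parasites grown in NIH/3T3 mouse fibroblasts as host cells; luminescent beta-galactosidase reporter signal from transgenic T. cruzi replicating inside host cells; inhibitors lower the luminescence signal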
[6] = target: T2, Protein RecA (Mycobacterium tuberculosis, UniProt P9WHJ3); experiment: Fluorescence Cell-Free Homogeneous Dose Retest to Identify Inhibitors of RecA-Intein Splicing Activity. [Related pubchem assays (depositor defined):AID2097, AID2223, AID489010, AID492950]; format: functional
T2 sequence (P9WHJ3 whole entry): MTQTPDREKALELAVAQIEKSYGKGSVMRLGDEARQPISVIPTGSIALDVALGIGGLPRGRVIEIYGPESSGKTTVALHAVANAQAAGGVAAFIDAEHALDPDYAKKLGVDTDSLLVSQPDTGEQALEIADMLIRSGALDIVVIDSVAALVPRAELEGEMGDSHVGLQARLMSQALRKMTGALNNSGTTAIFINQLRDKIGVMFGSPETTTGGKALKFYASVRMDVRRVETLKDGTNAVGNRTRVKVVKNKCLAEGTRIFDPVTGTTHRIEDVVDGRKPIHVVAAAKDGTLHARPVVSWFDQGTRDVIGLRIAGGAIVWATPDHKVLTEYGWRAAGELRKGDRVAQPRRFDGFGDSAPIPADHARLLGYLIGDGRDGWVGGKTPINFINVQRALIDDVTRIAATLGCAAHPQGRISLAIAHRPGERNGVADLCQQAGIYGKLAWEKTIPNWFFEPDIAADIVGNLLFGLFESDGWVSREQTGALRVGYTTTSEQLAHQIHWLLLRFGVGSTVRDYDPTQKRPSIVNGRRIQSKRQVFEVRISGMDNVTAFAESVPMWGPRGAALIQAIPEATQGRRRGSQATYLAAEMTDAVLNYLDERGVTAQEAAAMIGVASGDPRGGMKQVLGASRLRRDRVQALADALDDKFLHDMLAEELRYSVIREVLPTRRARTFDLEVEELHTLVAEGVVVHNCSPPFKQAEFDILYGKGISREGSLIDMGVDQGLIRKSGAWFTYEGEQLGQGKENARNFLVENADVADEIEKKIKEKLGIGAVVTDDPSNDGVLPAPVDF

[7] = viability loss in CEM21 cells – cell-based, CellTiter-Glo luminescence, cherry-picked, cytotoxicity control for viral fusion inhibitor project, dose response (AID 652042); format: functional;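 note: potency for signal decrease meaning cytotoxicity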
[8] = target: Beta Lactamase (Pseudomonas aeruginosa, UniProt Q932Y6); experiment: BLA reporter interference, concentration series – BLA reporter cells, FRET fluorescence, artefact control for TLR9-MyD88 binding inhibitor project, dose response (AID 588341); format: cell-based;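 note: cell based assay in CHO-K1 cells stably expressing beta-lactamase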
Chain of Beta Lactamase (Q932Y6 whole entry): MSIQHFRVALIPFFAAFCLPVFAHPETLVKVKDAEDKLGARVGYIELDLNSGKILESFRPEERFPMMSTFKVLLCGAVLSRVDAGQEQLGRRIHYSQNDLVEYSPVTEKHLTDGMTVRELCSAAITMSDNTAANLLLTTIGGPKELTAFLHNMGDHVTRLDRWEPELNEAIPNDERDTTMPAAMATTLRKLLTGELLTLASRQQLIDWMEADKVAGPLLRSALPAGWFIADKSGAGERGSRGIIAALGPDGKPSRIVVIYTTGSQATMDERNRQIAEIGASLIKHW

[9] = tested on: HEK293; experiment: EBV LMP1 TES2 canonical NF-kB signalling blockers – cell-based, HEK293, luciferase, cherry-pick, dose response (AID 588343); format: functional; conditions: Homo sapiens
[10] = target: T3, Streptokinase A (Streptococcus pyogenes serotype M1, UniProt P10520); experiment: viability-normalized secreted streptokinase activity reduction – plasminogen activation absorbance, OD405, dose response (AID 1914); format: functional, Streptococcus pyogenes M1 GAS;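 note: secreted streptokinase activity via plasminogen activation per viability signal from cell pellet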
T3 sequence (P10520 whole entry): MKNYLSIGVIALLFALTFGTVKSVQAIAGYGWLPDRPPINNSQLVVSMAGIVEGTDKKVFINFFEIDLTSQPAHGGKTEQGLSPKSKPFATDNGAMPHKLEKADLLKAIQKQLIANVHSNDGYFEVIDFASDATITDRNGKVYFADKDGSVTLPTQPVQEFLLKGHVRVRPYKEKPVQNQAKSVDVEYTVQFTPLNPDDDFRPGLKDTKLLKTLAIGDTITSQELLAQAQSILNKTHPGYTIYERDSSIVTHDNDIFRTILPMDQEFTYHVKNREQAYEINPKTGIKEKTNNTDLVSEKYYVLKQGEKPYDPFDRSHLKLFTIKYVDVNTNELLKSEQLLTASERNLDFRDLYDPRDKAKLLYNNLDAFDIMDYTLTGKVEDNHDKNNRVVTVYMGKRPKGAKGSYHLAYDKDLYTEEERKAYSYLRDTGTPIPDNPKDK

[11] = target: Delta-type opioid receptor (Homo sapiens, UniProt P41143); experiment: Counterscreen for agonists of heterodimerization of the mu 1 (OPRM1) and delta 1 (OPRD1) opioid receptors: Luminescence-based cell-based high throughput dose response assay to identify agonists of OPRD1 homodimerization. [Related pubchem assays (depositor defined):AID504326, AID504355, AID504692, AID504904, AID504905]; format: functional
Chain of Delta-type opioid receptor (P41143 whole entry): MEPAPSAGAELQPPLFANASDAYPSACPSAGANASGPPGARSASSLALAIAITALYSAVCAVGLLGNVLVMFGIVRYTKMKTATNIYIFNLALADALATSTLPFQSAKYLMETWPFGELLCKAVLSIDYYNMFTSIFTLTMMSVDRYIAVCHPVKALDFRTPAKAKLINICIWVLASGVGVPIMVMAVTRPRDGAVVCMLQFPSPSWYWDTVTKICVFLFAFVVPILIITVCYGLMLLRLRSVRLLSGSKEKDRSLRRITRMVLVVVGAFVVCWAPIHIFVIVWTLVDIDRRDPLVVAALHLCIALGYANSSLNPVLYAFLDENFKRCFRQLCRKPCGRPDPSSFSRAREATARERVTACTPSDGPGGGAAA

[12] = tested on: Streptococcus; experiment: GAS UMAA2166 growth inhibition – luminescence, BacTiterGlo, counter-screen for streptokinase expression inhibitor project, dose response (AID 1915); format: functional, organism-based;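 note: potency for reduction of bacterial viability or growth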
[13] = target: G-protein coupled receptor 55 (Homo sapiens, UniProt Q9Y2T6); experiment: selective activators of receptor GPR55 – imaging, U2OS cells, beta-arrestin-GFP redistribution, primary screen (AID 1961); format: functional
Chain of G-protein coupled receptor 55 (Q9Y2T6 whole entry): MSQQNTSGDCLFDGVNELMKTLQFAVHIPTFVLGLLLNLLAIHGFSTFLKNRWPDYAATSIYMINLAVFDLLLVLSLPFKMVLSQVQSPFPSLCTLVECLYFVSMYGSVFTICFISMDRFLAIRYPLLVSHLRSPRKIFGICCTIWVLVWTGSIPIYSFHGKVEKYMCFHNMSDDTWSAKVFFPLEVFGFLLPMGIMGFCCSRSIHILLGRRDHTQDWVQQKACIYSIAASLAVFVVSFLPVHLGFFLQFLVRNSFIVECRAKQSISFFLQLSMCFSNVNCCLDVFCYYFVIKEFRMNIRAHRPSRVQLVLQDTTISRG

[14] = target: Nonstructural protein 1 (Influenza A virus, UniProt Q194T2); format: functional, Influenza A virus (A/California/07/2009(H1N1))
Chain of Nonstructural protein 1 (Q194T2 whole entry): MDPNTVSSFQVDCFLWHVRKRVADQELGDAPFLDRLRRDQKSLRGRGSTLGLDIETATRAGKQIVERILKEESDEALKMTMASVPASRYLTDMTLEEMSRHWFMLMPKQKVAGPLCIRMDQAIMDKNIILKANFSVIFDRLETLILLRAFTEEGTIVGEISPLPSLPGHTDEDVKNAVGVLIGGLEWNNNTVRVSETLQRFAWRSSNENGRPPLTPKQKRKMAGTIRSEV

[15] = tested on: INS1; experiment: INS-1E survival protection against cytokine death – cell-based, luminescence, retest, dose response (AID 449756); format: functional; conditions: Rattus norvegicus;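 note: cell death triggered by IL-1 beta plus TNF-alpha plus IFN-gamma mixture; protective hits raise ATP signal compared with cytokine alone wells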
[16] = blockers of HIV-1 envelope-mediated cell-cell fusion – cherry-pick, dose response (AID 652057); format: functional, cell-based
[17] = NIH3T3 cell viability loss – ATP luminescence, mouse fibroblasts, counter-screen, dose response (AID 2010); format: functional, cell-based;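 note: cells exposed to compound for about 90 hours before reading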
[18] = target: Mu-type opioid receptor (Homo sapiens, UniProt P35372); experiment: Counterscreen for agonists of heterodimerization of the mu 1 (OPRM1) and delta 1 (OPRD1) opioid receptors: Luminescence-based cell-based high throughput dose response assay to identify agonists of OPRM1 homodimerization.; format: functional;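 note: U2OS cells expressing OPRM1 and beta-arrestin as split beta-galactosidase partners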
Chain of Mu-type opioid receptor (P35372 whole entry, the tested form may be a part): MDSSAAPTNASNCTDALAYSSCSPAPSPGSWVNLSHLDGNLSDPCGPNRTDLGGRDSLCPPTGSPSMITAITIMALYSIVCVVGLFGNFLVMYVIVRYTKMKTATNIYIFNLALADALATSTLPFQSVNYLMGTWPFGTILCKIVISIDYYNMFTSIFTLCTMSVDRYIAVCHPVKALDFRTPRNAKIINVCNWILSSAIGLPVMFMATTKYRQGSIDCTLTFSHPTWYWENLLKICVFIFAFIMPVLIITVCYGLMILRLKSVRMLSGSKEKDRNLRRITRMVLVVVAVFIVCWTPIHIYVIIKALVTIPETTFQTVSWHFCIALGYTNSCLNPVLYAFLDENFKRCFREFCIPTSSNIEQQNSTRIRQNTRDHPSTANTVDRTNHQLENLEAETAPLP

[19] = blockers of HIV-1 ZM109 envelope-driven cell-cell fusion – HeLa effector, CEM target cells, luciferase, cherry-pick, dose response (AID 652058); format: functional, cell-based;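 note: luciferase signal from HIV-1 Env mediated cell-cell fusion of effector and target cells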
[20] = target: 5-hydroxytryptamine receptor 5A (Homo sapiens, UniProt P47898); experiment: Counterscreen for agonists of OPRM1-OPRD1 heterodimerization: luminescence-based cell-based high throughput dose response assay to identify agonists of 5-hydroxytryptamine (serotonin) 5A receptor (HTR5A). [Related pubchem assays (depositor defined):AID504326, AID504355, AID504692, AID504904, AID504905]; format: functional
Chain of 5-hydroxytryptamine receptor 5A (P47898 whole entry, the tested form may be a part): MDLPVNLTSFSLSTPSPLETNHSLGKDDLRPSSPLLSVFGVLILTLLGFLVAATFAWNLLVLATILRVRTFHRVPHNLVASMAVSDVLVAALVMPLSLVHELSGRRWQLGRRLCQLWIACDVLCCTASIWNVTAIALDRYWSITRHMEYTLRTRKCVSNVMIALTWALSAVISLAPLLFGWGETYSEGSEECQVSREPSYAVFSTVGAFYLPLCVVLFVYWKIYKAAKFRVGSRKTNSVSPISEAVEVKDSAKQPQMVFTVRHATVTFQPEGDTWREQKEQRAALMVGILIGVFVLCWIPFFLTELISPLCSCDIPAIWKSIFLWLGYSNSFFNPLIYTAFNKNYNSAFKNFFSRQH

[21] = HIV-1 AD8 envelope cell-cell fusion blockers – cherry-pick, dose response (AID 652062); format: functional, cell-based;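 note: luciferase signal from cell-cell fusion driven by HIV-1 clade B AD8 Env; potency is for inhibitors of fusion seen as a drop in luminescence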
[22] = loss of viability in HepG2 cells – cell-based, CellTiter-Glo, cherry-picked, cytotoxicity control for Shn3 inhibitor project, dose response (AID 624134); format: functional
[23] = tested on: Streptococcus sp. 'group A'; experiment: Streptococcus pyogenes SK(-)GAS viability under kanamycin – luminescence, BacTiterGlo, confirmation, counter-screen for streptokinase expression inhibitor project, dose response (AID 1900); format: functional, organism-based
[24] = non-specific 3'UTR reporter inhibition in Clone20-Shn3RL – cell-based, Renilla luciferase, cherry-picked, counter-screen for Shn3 inhibitor project, dose response (AID 624133); format: functional
[25] = reduction of Shn3 3'UTR-driven luciferase in osteoblasts – cell-based, Clone20 osteoblasts, firefly luciferase, cherry-picked, dose response (AID 624132); format: functional;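 note: firefly luciferase luminescence from reporter carrying the Shn3 3'UTR in osteoblasts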

Chain of DNA dC->dU-editing enzyme APOBEC-3A (P31941 whole entry): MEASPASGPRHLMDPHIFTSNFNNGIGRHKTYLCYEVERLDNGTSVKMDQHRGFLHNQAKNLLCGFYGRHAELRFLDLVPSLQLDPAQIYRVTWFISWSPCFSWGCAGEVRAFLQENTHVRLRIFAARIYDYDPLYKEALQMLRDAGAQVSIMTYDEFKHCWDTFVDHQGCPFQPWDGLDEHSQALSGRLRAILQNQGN

COc1cccc(/C=N/n2c(S)nnc2-c2[nH]nc3c2CCC3)c1OC
IC50 [1]: > 100 µM (inactive)
IC50 [2]: 3.45 µM (active)

CCc1ccc(Nc2n[n+](-c3ccccc3)c(-c3c(Cl)cccc3Cl)s2)cc1
AC50 [3]: 3.71 µM (active)
IC50 [4]: 6.79 µM (active)
EC50 [5]: 1.35 µM (active)
EC50 [6]: 9.38 µM (active)
AC50 [7]: 10.8 µM (active)
IC50 [8]: 3.12 µM (active)
AC50 [9]: 47.5 µM (active)
EC50 [10]: 7.4 µM (active)
EC50 [11]: 14.2 µM (inactive)
EC50 [12]: 10.3 µM (active)
EC50 [13]: > 32 µM (inactive)
IC50 [14]: 24.4 µM (active)
AC50 [15]: 3.65 µM (active)
AC50 [16]: 15.5 µM (active)
EC50 [17]: 5.53 µM (active)
EC50 [18]: > 92.5 µM (inactive)
AC50 [19]: 23.3 µM (active)
EC50 [20]: > 92.5 µM (inactive)
AC50 [21]: 5.91 µM (active)
AC50 [22]: 14.6 µM (active)
EC50 [23]: 3.58 µM (active)
AC50 [24]: 19.4 µM (active)
AC50 [25]: 5.4 µM (active)

C=CCn1c(-c2cccc(Cl)c2)n[nH]c1=S
IC50 [1]: > 100 µM (inactive)
IC50 [2]: 6.21 µM (active)
